Source: paper PMC11346428, “Biophysical and structural analyses of the interaction between the SHANK1 PDZ domain and an internal SLiM” (Biochemical Journal, 2024)
One block for each molecule: values may come before it. Residues, ends and D or L forms follow the SMILES beside them. *: point of attachment. 5FAM = O=C1OC2(c3ccc(O)cc3Oc3cc(O)ccc32)c2ccc(C(=O)*)cc21; Ahx = NCCCCCC(=O)O

What was measured:
[1] = target: T1, SHANK1 PDZ domain (656–762) (Homo sapiens, UniProt Q9Y566); assay: Fluorescence anisotropy direct titration; type: binding; details: 50 mM NH4OAc, pH 6.5
T1 construct: Human SHANK1 PDZ domain (656–762) was prepared as described previously; GST (N, cleaved yes); made in house; host or cells: E. coli BL21 Gold (pGEX-6P-2)
T1 sequence (Q9Y566 656-762): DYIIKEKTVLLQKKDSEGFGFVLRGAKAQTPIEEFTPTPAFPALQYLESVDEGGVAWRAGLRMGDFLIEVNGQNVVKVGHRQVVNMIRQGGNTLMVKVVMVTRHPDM
Description: Direct titration assays were performed in 384-well plates (Greiner Bio-one). Two hundred micromolars of SHANK1 protein was dialyzed into the assay buffer before use. Twenty microlitres of the assay buffer (50 mM ammonium-acetate, pH 6.5) was first added to each well. Twenty microlitres of the target protein sample was then added to the first column, followed by a two-fold serial dilution over 24 points. Twenty microlitres of 50 nM tracer peptide or 20 µl of the assay buffer was added to the corresponding row wells. The titration was performed in triplicate. […] The P (perpendicular intensity) and S (parallel intensity) channels raw data were obtained. The data processing and formulae are shown in the Supporting Information 2.6.
(§1) . Reversed Phase C18 column, mobile phase A (0.1% TFA in water), mobile phase B
2.6 Equations for data calculation in fluorescent anisotropy direct titration The intensity and anisotropy were calculated by using Equations 1 and 2. The data was fitted to a sigmoidal logistic model to obtain r min and rmax, and the L b was further calculated (Equation 3). Finally, the data was fitted to a nonlinear curve model (Equation 4), to obtain the value of KD.
I = total intensity, r = anisotropy, P = perpendicular intensity, S = parallel intensity, G is an instrument gain factor, L b = fraction ligand bound, λ = Ibound/Iunbound = 1, [FL] = concentration of fluorescent ligand, k = K D and x = [added titrant].
2.7 Equations for data calculation in fluorescent anisotropy competition assays The calculated average anisotropy values and their standard deviation were fitted using a sigmoidal logistic model (Equation 5). y = r = anisotropy, xo = mid-point of the curve between the r max and rmin plateau. […]

[2] = target: T1, SHANK1 PDZ domain (656–762); assay: Isothermal titration calorimetry (ITC); details: 25 mM Tris, pH 7.5, 150 mM NaCl, 25°C; 500 μM peptide injected into 50 μM protein; one-binding site model
Description: A Microcal ITC200i instrument (Malvern) was employed to carry out the ITC experiments. Prior to use, SHANK1 protein was dialyzed against 20 mM Tris, 150 mM NaCl, pH 7.5 buffer. […] Sixty microlitres of every test peptide was placed in the syringe to titrate against 350 µl of 50 µM Shank1 protein in the cell. The injection volumes were 2 µl each, injection time 6 s, and a 120 s delay between each injection for 20 injections in total. The titration for peptide into buffer was subtracted from the titration for peptide into protein to account for the heat of peptide dilution. Raw data was processed in the software Microcal Origin 8 and fit to a one-binding site model.

[3] = target: T1, SHANK1 PDZ domain (656–762); assay: Fluorescence anisotropy competition assay; type: binding; details: 50 nM tracer, 1 μM SHANK1, 50 mM NH4OAc, pH 6.5, triplicate
Description: FA competition assays were also performed in 50 mM NH4OAc, pH 6.5 buffer in 384-well plates. Twenty microlitres of the assay buffer was first added to wells. Twenty microlitres of 5000 µM competitor peptides was added to the first columns, followed by a twofold serial dilution over 16 points. Three micromolars of SHANK1 protein was dialyzed into the assay buffer before use. Twenty microlitres of the SHANK1 protein was added to each well to give a final protein concentration of 1 μM. Twenty microlitres of 50 nM tracer peptides or 20 µl of the assay buffer was added to corresponding row wells. The titration was performed in triplicate. Plates were read immediately with an excitation and emission wavelength of 480 and 535 nm respectively (dichroic mirror 505 nm), and after an hour or after 24 h on the plate reader with the same parameters as described above. The data processing and formulae are shown in the Supporting Information 2.7.
Time (min) Mobile phase A (%) Mobile phase B (%) Flow (mL/min) […]
as §1
2.6 Equations for data calculation in fluorescent anisotropy direct titration The intensity and anisotropy were calculated by using Equations 1 and 2. The data was fitted to a sigmoidal logistic model to obtain r min and rmax, and the L b was further calculated (Equation 3). […]

Ac-EESTSFQGP-CONH2 = target: T2, Ac-EESTSFQGP-CONH2; assay: fluorescence anisotropy competition (tracer FAM-Ahx-EESTSFQGP-CONH2)
T2 chain: Ac-EESTSFQGP-NH2

FAM-Ahx-EESTSFQGP-CONH2 = target: T3, FAM-Ahx-EESTSFQGP-CONH2; assay: fluorescence anisotropy direct titration
T3 chain: {FAM-Ahx}-EESTSFQGP-NH2

[4] = 50 nM labelled peptide as tracer, plates read after 24 hr incubation at room temperature, read-out: KD (FA direct titration, Figure S1)

Kd [1, 4]: 3.6 ± 0.7 µM
Molecule: CC(C)[C@H](NC(=O)CNC(=O)[C@H](CCC(N)=O)NC(=O)[C@H](Cc1ccccc1)NC(=O)[C@H](CO)NC(=O)[C@@H](NC(=O)[C@H](CO)NC(=O)[C@H](CCC(=O)O)NC(=O)CCCCCNC(=O)c1ccc2c(c1)C(=O)OC21c2ccc(O)cc2Oc2cc(O)ccc21)[C@@H](C)O)C(=O)N[C@@H](CCCCN)C(=O)N[C@@H](CO)C(=O)NCC(=O)N1CCC[C@H]1C(=O)N[C@H](C(=O)N[C@@H](CO)C(=O)N[C@H](C(=O)N[C@@H](C)C(N)=O)C(C)C)C(C)C [FAM-Ahx-ELFN1579-594-CONH2] ({5FAM-Ahx}-ESTSFQGVKSGPVSVA-NH2)

Kd ([1]; FA direct titration of SHANK1 into 50 nM tracer peptide, 25°C, triplicate, read-out: KD): 0.81 ± 0.08 µM
Molecule: C[C@@H](O)[C@H](NC(=O)[C@H](CO)NC(=O)[C@H](CCC(=O)O)NC(=O)[C@H](CCC(=O)O)NC(=O)CCCCCNC(=O)c1ccc2c(c1)C(=O)OC21c2ccc(O)cc2Oc2cc(O)ccc21)C(=O)N[C@@H](CO)C(=O)N[C@@H](Cc1ccccc1)C(=O)N[C@@H](CCC(N)=O)C(=O)NCC(=O)N1CCC[C@H]1C(N)=O ({5FAM-Ahx}-EESTSFQGP-NH2)

Kd [2]: 0.96 µM | IC50 ([3]; competition against SHANK1/FAM-Ahx-EESTSFQGP-CONH2 interaction): 3.9 ± 0.1 µM | IC50 ([3]; competition against SHANK1/FITC-Ahx-EAQTRL-COOH interaction): 3.3 ± 0.2 µM
Molecule: Ac-EESTSFQGP-NH2

Kd [1, 4]: 12.2 ± 8.3 µM
Molecule: CC[C@H](C)[C@H](NC(=O)[C@H](CC(C)C)NC(=O)[C@H](CCC(=O)O)NC(=O)[C@@H]1CCCN1C(=O)[C@H](Cc1ccccc1)NC(=O)CCCCCNC(=O)c1ccc2c(c1)C(=O)OC21c2ccc(O)cc2Oc2cc(O)ccc21)C(=O)N[C@@H](CCC(N)=O)C(=O)N[C@@H](CC(=O)O)C(=O)N[C@H](C(=O)N[C@@H](CO)C(=O)N[C@H](C(=O)N[C@@H](CO)C(=O)N[C@@H](Cc1ccccc1)C(=O)N[C@@H](CO)C(=O)N[C@H](C(=O)N[C@H](C(=O)N[C@@H](CCCNC(=N)N)C(N)=O)[C@@H](C)O)[C@@H](C)O)[C@@H](C)O)[C@@H](C)O [FAM-Ahx-ARAP31414-1429-CONH2] ({5FAM-Ahx}-FPELIQDTSTSFSTTR-NH2)

IC50 (Ac-EESTSFQGP-CONH2): 3.9 µM | Kd (FAM-Ahx-EESTSFQGP-CONH2): 0.81 µM
B1: SHANK1 PDZ domain 656-762 (protein)
chain: T1 sequence (Q9Y566 656-762)
